From ChEMBL document CHEMBL1139776, “Development of carboxylic acid replacements in indole-N-acetamide inhibitors of hepatitis C virus NS5B polymerase” (Bioorg Med Chem Lett, 2007)
Active and inactive are the calls of the source. The rule behind the calls is not given here.

Assays:
[1] = Terminal phase half life in rat at 3 mg/kg, iv; format: ADME, organism-based; design: dose 3 mg/kg, route intravenous; details: in vivo
[2] = tested on: Hepatitis C virus; assay: Antiviral activity against HCV in Huh7 cells assessed as inhibition of viral replication in presence of 10% fetal calf serum; format: functional, organism-based, Hepacivirus hominis; details: Huh-7
[3] = Inhibition of HCV NS5B deltaC RNA polymerase; design: species or system Hepacivirus hominis
[4] = Plasma clearance in rat at 3 mg/kg, po or 3 mg/kg, iv; format: ADME, organism-based
[5] = AUC in rat at 3 mg/kg, po; format: ADME, organism-based; design: dose 3 mg/kg, route oral; details: plasma
[6] = tested on: Hepatitis C virus; assay: Antiviral activity against HCV in Huh7 cells assessed as inhibition of viral replication in absence of serum; format: functional, organism-based, Hepacivirus hominis; details: Huh-7
[7] = Oral bioavailability in rat at 3 mg/kg; format: ADME, organism-based; details: in vivo
[8] = species on record: Homo sapiens; assay: Protein binding in human plasma assessed as free drug level; details: read-out: PPB
[9] = Dissociation constant, pKa of the compound; format: physicochemical
[10] = Cytotoxicity against Huh7 cells; format: cell-based, Huh-7; details: human

Row | SMILES | EC50 [2] [nM] | IC50 [3] [nM] | fraction unbound [8] | also measured
1 | CCS(=O)(=O)NC(=O)c1ccc2c(C3CCCCC3)c(-c3ccccc3)n(CC(=O)N(C)C)c2c1.O=C(O)C(F)(F)F |  |  |  | bioavailability [7]: 24%
2 | CN(C)C1CCN(C(=O)Cn2c(-c3cnn(C)c3)c(C3CCCCC3)c3ccc(-c4noc(=O)[nH]4)cc32)CC1 | > 50000 | 170 | 0.094 | 
3 | CN(C)C(=O)Cn1c(-c2ccccc2)c(C2CCCCC2)c2ccc(-c3noc(=O)[nH]3)cc21 | 4400 | 68 | 0.001 | half-life [1]: 13 h; clearance [4]: 12 mL/min/kg; AUC [5]: 2 µM·h; pKa [9]: 4.8
4 | Cc1ccccc1-c1c(C2CCCCC2)c2ccc(-c3noc(=O)[nH]3)cc2n1CC(=O)N1CCC(N(C)C)CC1 | 17000 | 300 |  | 
5 | CN(C)C(=O)Cn1c(-c2cccnc2)c(C2CCCCC2)c2ccc(-c3noc(=O)[nH]3)cc21 | 20000 | 780 |  | 
6 | COc1cccc(-c2c(C3CCCCC3)c3ccc(-c4noc(=O)[nH]4)cc3n2CC(=O)N2CCC(N(C)C)CC2)c1 | 3700 | 67 |  | 
7 | CN(C)C(=O)Cn1c(-c2ccccc2)c(C2CCCCC2)c2ccc(C(=O)O)cc21 | 1500 | 86 |  | half-life [1]: 5 h; clearance [4]: 32 mL/min/kg; AUC [5]: 2 µM·h; pKa [9]: 4.8
8 | CN(C)C(=O)Cn1c(-c2ccccc2)c(C2CCCCC2)c2ccc(C(=O)O)cc21.O=C(O)C(F)(F)F |  |  |  | bioavailability [7]: 45%
9 | CN(C)C(=O)Cn1c(-c2ccccc2)c(C2CCCCC2)c2ccc(C(=O)N(C)S(=O)(=O)Cc3ccccc3)cc21 |  | 640 | 0.001 | Activity ([2]; Hepacivirus hominis): inactive
10 | CN(C)C(=O)Cn1c(-c2ccccc2)c(C2CCCCC2)c2ccc(-c3noc(=O)[nH]3)cc21.O=C(O)C(F)(F)F |  |  |  | bioavailability [7]: 20%
11 | CN1CCC(N(C)C(=O)Cn2c(-c3ccccc3)c(C3CCCCC3)c3ccc(-c4noc(=O)[nH]4)cc32)C1 (stereo unspecified) | 1600 | 75 |  | 

Second part, led by results:

Row | EC50 [2] [nM] | IC50 [3] [nM] | fraction unbound [8] | SMILES | also measured
12 | 2100 | 46 |  | CCS(=O)(=O)NC(=O)c1ccc2c(C3CCCCC3)c(-c3ccccc3)n(CC(=O)N(C)C)c2c1 | half-life [1]: 2 h; clearance [4]: 51 mL/min/kg; AUC [5]: 1 µM·h; EC50 [6]: 520 nM
13 | 1900 | 17 |  | CN(C)C1CCN(C(=O)Cn2c(-c3ccc(Cl)cc3)c(C3CCCCC3)c3ccc(-c4noc(=O)[nH]4)cc32)CC1 | 
14 | 1100 | 26 |  | CN(C)CC1CN(C(=O)Cn2c(-c3ccoc3)c(C3CCCCC3)c3ccc(-c4noc(=O)[nH]4)cc32)CCO1 (stereo unspecified) | 
15 | 3900 | 11 | 0.003 | CN(C)C(=O)Cn1c(-c2ccccc2)c(C2CCCCC2)c2ccc(C(=O)NS(=O)(=O)c3ccccc3)cc21 | EC50 [6]: 130 nM
16 | 1300 | 59 |  | CN(C)C1CCN(C(=O)Cn2c(-c3ccccc3)c(C3CCCCC3)c3ccc(-c4noc(=O)[nH]4)cc32)CC1 | 
17 | 5400 | 31 | 0.019 | CN(C)CCS(=O)(=O)NC(=O)c1ccc2c(C3CCCCC3)c(-c3ccccc3)n(CC(=O)N(C)C)c2c1 | EC50 [6]: 2000 nM
18 | 560 | 19 | 0.01 | CN(C)C(=O)Cn1c(-c2ccoc2)c(C2CCCCC2)c2ccc(C(=O)NS(=O)(=O)CC(=O)O)cc21 | 
19 | 5000 | 31 | < 0.001 | CN(C)C(=O)Cn1c(-c2ccccc2)c(C2CCCCC2)c2ccc(C(=O)NS(=O)(=O)Cc3ccccc3)cc21 | EC50 [6]: 150 nM
20 | 1100 | 47 | 0.021 | CN1CCCC(CN(C)C(=O)Cn2c(-c3ccccc3)c(C3CCCCC3)c3ccc(-c4noc(=O)[nH]4)cc32)C1 (stereo unspecified) | 
21 | 120 | 4 |  | CCN(CC)C1CCN(C(=O)Cn2c(-c3ccoc3)c(C3CCCCC3)c3ccc(C(=O)NS(=O)(=O)N(C)C)cc32)CC1 | CC50 [10]: 50000 nM
22 | 1500 | 22 | 0.008 | CCS(=O)(=O)NC(=O)c1ccc2c(C3CCCCC3)c(-c3ccoc3)n(CC(=O)N(C)C)c2c1 | 
23 | 380 | 14 | 0.011 | CN(C)C(=O)Cn1c(-c2ccoc2)c(C2CCCCC2)c2ccc(C(=O)NS(=O)(=O)N(C)C)cc21 | 
24 | 1500 | 11 |  | CCS(=O)(=O)NC(=O)c1ccc2c(C3CCCCC3)c(-c3ccc(OC)cc3)n(CC(=O)N(C)C)c2c1 | 
25 | 710 | 9 | 0.008 | CN(C)C(=O)Cn1c(-c2ccccc2)c(C2CCCCC2)c2ccc(C(=O)NS(=O)(=O)N(C)C)cc21 | 
26 | 1600 | 29 |  | CN(C)C(=O)Cn1c(-c2ccccc2)c(C2CCCCC2)c2ccc(C(=O)NS(=O)(=O)CC(=O)O)cc21 | 
27 | 2400 | 53 |  | CN(C)C1CCN(C(=O)Cn2c(-c3ccccc3F)c(C3CCCCC3)c3ccc(-c4noc(=O)[nH]4)cc32)CC1 | 
28 | 340 | 9 |  | CCN(CC)CC1CN(C(=O)Cn2c(-c3ccc(OC)cc3)c(C3CCCCC3)c3ccc(C(=O)NS(=O)(=O)CC)cc32)CCO1 (stereo unspecified) | CC50 [10]: 50000 nM
